Data from patent US20080234262A1 (Wyeth, priority 2007, published 2008).
Like-named read-outs stand apart in the source and are kept apart here.

Tests used:
prostate line LNCap = assay: In vitro cell culture growth assay (MTS), LNCap; assay type: cell-based, human; details: LNCap cells, three days after drug treatment
breast line MDA468 = assay: In vitro cell culture growth assay (MTS), MDA468; assay type: cell-based, human; details: MDA468 cells, three days after drug treatment
How it was run: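 MDA468 or LNCap cells received inhibitors one day after plating and were grown for three days. Viable cell density read by MTS conversion, absorbance 490 nm, expressed as percent of control growth versus vehicle-treated cells on the same plate.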

PI3K = PI3K (Homo sapiens, UniProt P42336); assay: Fluorescence polarization assay for PI3K; assay type: biochemical;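 further: PI3K kinase reaction on PIP2 with ATP, 30-60 min, product sensed by GST-GRP with red probe in fluorescence polarization (mP), controls without enzyme and at zero time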
PI3K, sequence (P42336 whole entry): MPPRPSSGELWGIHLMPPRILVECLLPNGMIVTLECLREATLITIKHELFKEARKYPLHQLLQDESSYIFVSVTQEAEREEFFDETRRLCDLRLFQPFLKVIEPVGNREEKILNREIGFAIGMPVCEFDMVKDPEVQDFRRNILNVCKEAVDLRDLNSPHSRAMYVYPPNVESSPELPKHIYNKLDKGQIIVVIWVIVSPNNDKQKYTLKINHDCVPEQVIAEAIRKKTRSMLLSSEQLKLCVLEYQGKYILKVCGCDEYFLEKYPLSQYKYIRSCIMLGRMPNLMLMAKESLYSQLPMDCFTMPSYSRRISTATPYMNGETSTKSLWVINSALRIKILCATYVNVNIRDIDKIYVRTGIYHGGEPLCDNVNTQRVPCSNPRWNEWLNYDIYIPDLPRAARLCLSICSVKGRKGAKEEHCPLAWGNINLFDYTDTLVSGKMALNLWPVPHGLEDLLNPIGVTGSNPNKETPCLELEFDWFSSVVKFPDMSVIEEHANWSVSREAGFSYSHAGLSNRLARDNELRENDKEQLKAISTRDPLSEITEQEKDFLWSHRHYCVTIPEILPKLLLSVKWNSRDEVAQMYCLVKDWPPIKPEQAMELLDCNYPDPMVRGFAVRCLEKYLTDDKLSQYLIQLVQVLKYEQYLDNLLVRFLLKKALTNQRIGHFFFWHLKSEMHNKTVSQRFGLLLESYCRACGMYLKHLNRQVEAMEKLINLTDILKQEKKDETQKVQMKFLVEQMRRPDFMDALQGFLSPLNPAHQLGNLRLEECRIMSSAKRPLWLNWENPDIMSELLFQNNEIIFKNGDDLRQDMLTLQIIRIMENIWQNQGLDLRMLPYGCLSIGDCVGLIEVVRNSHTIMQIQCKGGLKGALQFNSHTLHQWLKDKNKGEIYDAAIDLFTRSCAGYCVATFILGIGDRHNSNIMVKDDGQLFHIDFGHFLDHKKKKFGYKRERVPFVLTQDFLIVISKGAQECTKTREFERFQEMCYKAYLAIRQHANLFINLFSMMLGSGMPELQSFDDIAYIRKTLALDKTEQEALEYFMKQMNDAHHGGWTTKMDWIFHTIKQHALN
PI3K, sequence (P27986 whole entry partner): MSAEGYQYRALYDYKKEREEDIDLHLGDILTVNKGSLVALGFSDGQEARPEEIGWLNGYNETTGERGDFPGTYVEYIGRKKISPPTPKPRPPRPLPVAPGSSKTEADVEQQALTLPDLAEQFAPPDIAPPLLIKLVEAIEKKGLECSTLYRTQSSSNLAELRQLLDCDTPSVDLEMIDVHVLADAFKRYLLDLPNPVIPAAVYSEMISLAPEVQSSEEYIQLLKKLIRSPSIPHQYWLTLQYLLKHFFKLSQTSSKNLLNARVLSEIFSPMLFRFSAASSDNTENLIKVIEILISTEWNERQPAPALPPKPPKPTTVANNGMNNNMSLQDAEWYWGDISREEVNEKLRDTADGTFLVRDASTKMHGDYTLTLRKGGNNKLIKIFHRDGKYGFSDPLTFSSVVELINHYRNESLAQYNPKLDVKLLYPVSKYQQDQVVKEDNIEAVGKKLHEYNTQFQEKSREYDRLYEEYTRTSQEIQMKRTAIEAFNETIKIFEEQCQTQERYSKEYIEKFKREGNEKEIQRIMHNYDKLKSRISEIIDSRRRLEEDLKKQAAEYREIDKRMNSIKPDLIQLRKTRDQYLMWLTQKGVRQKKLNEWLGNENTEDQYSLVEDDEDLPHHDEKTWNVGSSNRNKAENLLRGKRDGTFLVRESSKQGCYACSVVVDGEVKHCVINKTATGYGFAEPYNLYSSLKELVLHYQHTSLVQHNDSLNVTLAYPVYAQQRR

Compound	IC50 (prostate line LNCap; Homo sapiens, LNCaP, 72 h)	IC50 (PI3K; PI3Kα, read-out: PI3Kα IC50)	IC50 (breast line MDA468; Homo sapiens, 72 h)	IC50 (prostate line LNCap)	IC50 (breast line MDA468)	IC50 (prostate line LNCap; Homo sapiens, 72 h)	IC50 (PI3K; PI3Kα IC50, PI3Kα)
CCSC(=O)N1CCC(n2ncc3c(N4CCOCC4)nc(-c4ccc(NC(=O)OC)cc4)nc32)CC1 [Compound 807, S-ethyl 4-(6-{4-[(methoxycarbonyl)amino]phenyl}-4-morpholin-4-yl-1H-pyrazolo[3,4-d]pyrimidin-1-yl)piperidine-1-carbothioate]	1400 nM	4450 nM	8000 nM				
CS(=O)(=O)Nc1cccc(-c2nc(N3CCOCC3)c3cnn(C4CCN(Cc5ccccc5)CC4)c3n2)c1 [Compound 84]	12000 nM	4200 nM	12000 nM				
CCCCNC(=O)Nc1ccc(-c2nc(N3CCOCC3)c3cnn(C4CCN(Cc5ccccc5)CC4)c3n2)cc1 [Compound 185]	1200 nM	180 nM	3900 nM				
C1=C(c2nc(N3CCOCC3)c3cnn(-c4ccccc4)c3n2)CCOC1 [Compound 98]	60000 nM	754 nM	33000 nM				
O=C(Nc1ccc(-c2nc(N3CCOCC3)c3cnn(C4CCNCC4)c3n2)cc1)NC1CC1 [Compound 776, 1-cyclopropyl-3-[4-(4-morpholin-4-yl-1-piperidin-4-yl-1H-pyrazolo[3,4-d]pyrimidin-6-yl)phenyl]urea]	1100 nM	442 nM	1100 nM				
O=C(Nc1cccnc1)N1CCC(n2ncc3c(N4CCOCC4)nc(-c4ccc5[nH]ccc5c4)nc32)CC1 [Compound 132]	300 nM	311 nM	1200 nM				
COC(=O)N1CCC(n2ncc3c(N4CCOCC4)nc(-c4ccc(NC(=O)OCCF)cc4)nc32)CC1 [Compound 865, methyl 4-[6-(4-{[(2-fluoroethoxy)carbonyl]amino}phenyl)-4-morpholin-4-yl-1H-pyrazolo[3,4-d]pyrimidin-1-yl]piperidine-1-carboxylate]	680 nM	2950 nM	4100 nM				
CNCCOC(=O)N1CCC(n2ncc3c(N4CCOCC4)nc(-c4ccc(NC(=O)NC)cc4)nc32)CC1 [Compound 802, 2-(methylamino)ethyl 4-(6-{4-[(methylcarbamoyl)amino]phenyl}-4-morpholin-4-yl-1H-pyrazolo[3,4-d]pyrimidin-1-yl)piperidine-1-carboxylate]	10000 nM	181 nM	5500 nM				
NCCNC(=O)Nc1ccc(-c2nc(N3CCOCC3)c3cnn(C4CCN(Cc5ccccc5)CC4)c3n2)cc1 [Compound 512, 1-(2-aminoethyl)-3-{4-[1-(1-benzylpiperidin-4-yl)-4-morpholin-4-yl-1H-pyrazolo[3,4-d]pyrimidin-6-yl]phenyl}urea]	2000 nM	14 nM	2700 nM				
methyl [4-(1-{1-[(6-fluoropyridin-3-yl)methyl]piperidin-4-yl}-4-morpholin-4-yl-1H-pyrazolo[3,4-d]pyrimidin-6-yl) phenyl]carbamate [Compound 453]		1200 nM		900 nM	6000 nM		
Clc1cc(-c2nc(N3CCOCC3)c3cnn(C4CCN(Cc5ccccc5)CC4)c3n2)ccn1 [Compound 157]	33000 nM	1030 nM	60000 nM				
C=CCONC(=O)Nc1ccc(-c2nc(N3CCOCC3)c3cnn(-c4ccccc4)c3n2)cc1 [Compound 296, 1-(allyloxy)-3-[4-(4-morpholin-4-yl-1-phenyl-1H-pyrazolo[3,4-d]pyrimidin-6-yl)phenyl]urea]	3000 nM	896 nM	60000 nM				
FC(F)(F)CN1CCC(n2ncc3c(N4CCOCC4)nc(-c4ccc5[nH]ccc5c4)nc32)CC1 [Compound 471, 6-(1H-indol-5-yl)-4-morpholin-4-yl-1-[1-(2,2,2-trifluoroethyl)piperidin-4-yl]-1H-pyrazolo[3,4-d]pyrimidine]	4000 nM	2880 nM	7800 nM				
COC(=O)N1CCC(n2ncc3c(N4CCOCC4)nc(-c4ccc(NC(=O)Oc5ccc(F)cc5)cc4)nc32)CC1 [Compound 948, methyl 4-[6-(4-{[(4-fluorophenoxy)carbonyl]amino}phenyl)-4-morpholin-4-yl-1H-pyrazolo[3,4-d]pyrimidin-1-yl]piperidine-1-carboxylate]			700 nM			220 nM	8830 nM
NC(=O)Nc1ccc(-c2nc(N3CCOCC3)c3cnn(C4CCN(Cc5cccnc5)CC4)c3n2)cc1 [Example 313, 1-(4-{4-morpholin-4-yl-1-[1-(pyridin-3-ylmethyl)piperidin-4-yl]-1H-pyrazolo[3,4-d]pyrimidin-6-yl}phenyl)urea]	200 nM	82 nM	200 nM				
c1ccc(CN2CCC(n3ncc4c(N5CCOCC5)nc(-c5ccc6[nH]ccc6c5)nc43)CC2)cc1 [Example 45]	1400 nM	1010 nM	1900 nM				
O=C(NO)Nc1ccc(-c2nc(N3CCOCC3)c3cnn(C4CCN(Cc5cccnc5)CC4)c3n2)cc1 [Compound 317, 1-hydroxy-3-(4-{4-morpholin-4-yl-1-[1-(pyridin-3-ylmethyl)piperidin-4-yl]-1H-pyrazolo[3,4-d]pyrimidin-6-yl}phenyl)urea]	1100 nM	259 nM	1500 nM				
CN(C)c1ccc(CC(=O)Nc2ccc(-c3nc(N4CCOCC4)c4cnn(C5CCCCO5)c4n3)cc2)cc1 (stereo not drawn) [Compound 276, 2-[4-(dimethylamino)phenyl]-N-{4-[4-morpholin-4-yl-1-(tetrahydro-2H-pyran-2-yl)-1H-pyrazolo[3,4-d]pyrimidin-6-yl]phenyl}acetamide]	11000 nM	6470 nM	60000 nM				

Continued, in another order:

IC50 (prostate line LNCap; Homo sapiens, LNCaP, 72 h)	IC50 (PI3K; PI3Kα, read-out: PI3Kα IC50)	Compound	IC50 (breast line MDA468; Homo sapiens, 72 h)	IC50 (prostate line LNCap)	IC50 (breast line MDA468)	IC50 (prostate line LNCap; Homo sapiens, 72 h)	IC50 (PI3K; PI3Kα IC50, PI3Kα)
< 27 nM	704 nM	CCNC(=O)Nc1ccc(-c2nc(N3CCOCC3)c3cnn(C4CCN(C(=O)OCC)CC4)c3n2)cc1 [Compound 820, ethyl 4-(6-{4-[(ethylcarbamoyl)amino]phenyl}-4-morpholin-4-yl-1H-pyrazolo[3,4-d]pyrimidin-1-yl)piperidine-1-carboxylate]	130 nM				
110 nM	737 nM	O=C(Nc1ccc(-c2nc(N3CCOCC3)c3cnn(C4CCN(CC(F)(F)F)CC4)c3n2)cc1)OCCO [Compound 923, 2-hydroxyethyl (4-{4-morpholin-4-yl-1-[1-(2,2,2-trifluoroethyl)piperidin-4-yl]-1H-pyrazolo[3,4-d]pyrimidin-6-yl}phenyl)carbamate]	1200 nM				
60 nM	112 nM	CNC(=O)Nc1ccc(-c2nc(N3CCOCC3)c3cnn(C4CCN(Cc5ccncc5)CC4)c3n2)cc1 [Compound 426, 1-methyl-3-(4-{4-morpholin-4-yl-1-[1-(pyridin-4-ylmethyl)piperidin-4-yl]-1H-pyrazolo[3,4-d]pyrimidin-6-yl}phenyl)urea]	700 nM				
< 27 nM	338 nM	O=C(NCCF)Nc1ccc(-c2nc(N3CCOCC3)c3cnn(C4CCN(Cc5cccnc5)CC4)c3n2)cc1 [Compound 560, 1-(2-fluoroethyl)-3-(4-{4-morpholin-4-yl-1-[1-(pyridin-3-ylmethyl)piperidin-4-yl]-1H-pyrazolo[3,4-d]pyrimidin-6-yl}phenyl)urea]	27 nM				
140 nM	44 nM	CNC(=O)Nc1ccc(-c2nc(N3CCOCC3)c3cnn(C4CCOCC4)c3n2)cc1 [Compound 939, 1-methyl-3-{4-[4-morpholin-4-yl-1-(tetrahydro-2H-pyran-4-yl)-1H-pyrazolo[3,4-d]pyrimidin-6-yl]phenyl}urea]	500 nM				
52 nM	42 nM	CNC(=O)Nc1ccc(-c2nc(N3CCOCC3)c3cnn(C4CCN(C(=O)c5ccc(Cl)cc5)CC4)c3n2)cc1 [Example 362, 1-(4-{1-[1-(4-chlorobenzoyl)piperidin-4-yl]-4-morpholin-4-yl-1H-pyrazolo[3,4-d]pyrimidin-6-yl}phenyl)-3-methylurea]	400 nM				
< 27 nM	33 nM	CNC(=O)Nc1ccc(-c2nc(N3CCOCC3)c3cnn(C4CCN(Cc5ccc(OC)nc5)CC4)c3n2)cc1 [Compound 574, 1-[4-(1-{1-[(6-methoxypyridin-3-yl)methyl]piperidin-4-yl}-4-morpholin-4-yl-1H-pyrazolo[3,4-d]pyrimidin-6-yl)phenyl]-3-methylurea]	700 nM				
180 nM	25 nM	CCn1nc(C#CCN(C)C)c2c(N3CCOCC3)nc(-c3ccc(NC(=O)NC)cc3)nc21 [Compound 955, 1-(4-{3-[3-(dimethylamino)prop-1-yn-1-yl]-1-ethyl-4-morpholin-4-yl-1Hpyrazolo[3,4-d]pyrimidin-6-yl}phenyl)-3-methylurea]	500 nM				
40 nM	18 nM	O=C(Nc1ccc(-c2nc(N3CCOCC3)c3cnn(C4CCN(C(=O)c5cccnc5)CC4)c3n2)cc1)Nc1ccsc1 [Example 414, 1-(4-{4-morpholin-4-yl-1-[1-(pyridin-3-ylcarbonyl)piperidin-4-yl]-1H-pyrazolo[3,4-d]pyrimidin-6-yl}phenyl)-3-(3-thienyl)urea]	100 nM				
59 nM	896 nM	COC(=O)N1CCC(n2ncc3c(N4CCOC(C)C4)nc(-c4ccc(NC(=O)NCCF)cc4)nc32)CC1 (stereo not drawn) [Compound 844, methyl 4-[6-(4-{[(2-fluoroethyl)carbamoyl]amino}phenyl)-4-(2-methylmorpholin-4-yl)-1H-pyrazolo[3,4-d]pyrimidin-1-yl]piperidine-1-carboxylate]	700 nM				
70 nM	82 nM	CNC(=O)Nc1ccc(-c2nc(N3CCOCC3)c3cnn(C4CCN(Cc5cnccc5OC)CC4)c3n2)cc1 [Example 391, 1-[4-(1-{1-[(4-methoxypyridin-3-yl)methyl]piperidin-4-yl}-4-morpholin-4-yl-1H-pyrazolo[3,4-d]pyrimidin-6-yl)phenyl]-3-methylurea]	200 nM				
